Source: US20230303570A1, “KINASE INHIBITORS AND USES THEREOF” (ABM Therapeutics Corporation, priority 2020, published 2023)
Like-named read-outs stand apart in the source and are kept apart here.

Assays:
[1] = Mouse pharmacokinetics study (intravenous and oral); format: in vivo; conditions: CD-1 mice
From the text: The test articles were formulated in […] Hydroxypropyl-beta-cyclodextrin, either as a clear solution or fine suspension.

PAK1 = PAK1 (Homo sapiens, UniProt Q13153); assay: In vitro kinase assay, PAK1 (Caliper EZ Reader conversion); format: biochemical; design: purchased Carna Biosciences
Method: (§1) The effect of the compounds on the activity of SRC and PAK1 kinase were assessed. SRC and PAK1 kinase enzymes were obtained from Carna Biosciences.
(§2) Test compounds were dissolved in 100% DMSO to prepare a 20 mM stock. Compounds were stored in −20° C. and protected from light. A 100×solution of the compounds were prepared, from which 4-fold serial dilutions was made to achieve a total of 6 concentrations. Saracatinib was used as a positive control for the SRC assay, and FRAX597 was used as a positive control for the PAK1 assay. For the positive controls, a 3-fold serial dilution was made to achieve a total of 10 concentrations. 10 μL 1× Kinase buffer was used as the negative control.
(§3) First, 250 nL of the compounds at each dilution were transferred into wells of a 384-well plate. The PAK1 and SRC kinases were diluted to a 2.5×final concentration with 1×Kinase buffer. Then, 10 μL of enzyme mix was added to the 384-well plate, and the enzymes and compounds were pre-incubated at room temperature for 10 minutes. […] Then, 15 μL of substrate mix was added to a 384-well plate and reacted at room temperature for 30 min and 60 min. The reaction was stopped by adding 30 μL of the stop buffer, and the conversion rate was read using a Caliper EZ Reader.
(§4) Percent inhibition is calculated according to the following equation: […]
(§5) wherein “Conversion %_sample” is the conversion percentage value of the sample; “Conversion %_min” is the average conversion percentage value of the negative control; and “Conversion %_max” is the average conversion percentage value of the positive control.
(§6) The dose-response curve was fitted using GraphPad Prism software (version 5, […]), and the IC50 values for each compounds were calculated by log(inhibitor) vs. response using a variable slope program with the following formula:
(§7) Y=Bottom+(Top-Bottom)/(1+10^((Log IC50−X)*HillSlope))

SRC = target: T1, SRC (Homo sapiens, UniProt P12931); assay: In vitro kinase assay, SRC (Caliper EZ Reader conversion); format: biochemical
T1 construct: purchased Carna Biosciences
Method: as §1
as §2, with “A 100×solution of the compounds were prepared, from which 4-fold serial dilutions was made to achieve a total of 6 concentrations.” left out
as §3, with “The PAK1 and SRC kinases were diluted to a 2.5×final concentration with 1×Kinase buffer.” left out
as §4, §5, §6, §7

Sequence of PAK1 (Q13153 whole entry): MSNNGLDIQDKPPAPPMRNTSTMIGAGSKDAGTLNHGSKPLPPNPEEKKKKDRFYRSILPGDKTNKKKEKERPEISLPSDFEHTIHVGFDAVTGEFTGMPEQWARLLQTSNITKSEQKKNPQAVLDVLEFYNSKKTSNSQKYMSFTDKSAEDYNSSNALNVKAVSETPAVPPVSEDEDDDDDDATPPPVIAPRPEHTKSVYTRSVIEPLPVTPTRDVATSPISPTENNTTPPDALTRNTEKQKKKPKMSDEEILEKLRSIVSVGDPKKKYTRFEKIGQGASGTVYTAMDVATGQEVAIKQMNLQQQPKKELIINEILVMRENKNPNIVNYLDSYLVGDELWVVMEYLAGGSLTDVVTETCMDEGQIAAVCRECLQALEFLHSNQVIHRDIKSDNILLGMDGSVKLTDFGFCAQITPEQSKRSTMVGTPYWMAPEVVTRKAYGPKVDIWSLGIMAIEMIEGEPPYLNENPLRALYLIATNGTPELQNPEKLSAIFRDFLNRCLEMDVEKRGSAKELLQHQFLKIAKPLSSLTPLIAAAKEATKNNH
T1 sequence (P12931 whole entry): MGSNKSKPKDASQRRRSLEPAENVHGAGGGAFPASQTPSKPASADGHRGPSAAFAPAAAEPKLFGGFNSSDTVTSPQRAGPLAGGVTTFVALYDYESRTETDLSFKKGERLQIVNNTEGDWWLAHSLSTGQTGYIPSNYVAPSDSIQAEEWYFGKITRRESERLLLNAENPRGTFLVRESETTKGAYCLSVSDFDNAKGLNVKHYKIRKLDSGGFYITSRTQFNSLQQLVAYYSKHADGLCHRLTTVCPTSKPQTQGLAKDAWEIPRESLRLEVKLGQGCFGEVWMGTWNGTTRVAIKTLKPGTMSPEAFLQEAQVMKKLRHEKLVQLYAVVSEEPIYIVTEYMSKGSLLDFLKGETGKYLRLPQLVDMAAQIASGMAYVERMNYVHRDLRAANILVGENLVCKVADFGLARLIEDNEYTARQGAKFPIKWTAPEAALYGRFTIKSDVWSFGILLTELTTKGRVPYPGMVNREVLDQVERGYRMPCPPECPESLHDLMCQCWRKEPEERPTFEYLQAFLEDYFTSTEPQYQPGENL

Row | SMILES | IC50 (PAK1) [µM] | IC50 (SRC; read-out: SRC IC50) [µM] | other results
1 | Cc1cc(F)c(NC(=O)c2cc(C(C)(C)C#N)ccn2)cc1C1=Cc2cnc(Nc3cnn(C)c3)nc2N2CCN=C12 [Compound 202, 4-(2-cyanopropan-2-yl)-N-(2-fluoro-4-methyl-5-(2-((1-methyl-1H-pyrazol-4-yl)amino)-8,9-dihydroimidazo[1′,2′:1,6]pyrido[2,3-d]pyrimidin-6-yl)phenyl)picolinamide] | – | – | F ([1]; PO 25 mg/kg): 56 ± 9%; Vd ([1]; mouse, plasma, IV 5 mg/kg): 9.64 ± 1.99 L/kg; half-life ([1]; mouse, plasma, IV 5 mg/kg): 3.99 ± 0.72 h; clearance ([1]; mouse, plasma, IV 5 mg/kg, read-out: Clp): 1.67 ± 0.06 L/h/kg; AUC ([1]; mouse, plasma, PO 25 mg/kg): 8.16 ± 1.27 µg·h/mL; Cmax ([1]; mouse, plasma, PO 25 mg/kg): 0.839 ± 0.059 µg/mL; Tmax ([1]; mouse, plasma, PO 25 mg/kg): 1.67 ± 0.58 h
2 | C1=C(c2ccncc2)C2=NCCN2c2nc(Nc3ccncc3)ncc21 [Compound 45, N,6-di(pyridin-4-yl)-8,9-dihydroimidazo[1′,2′:1,6]pyrido[2,3-d]pyrimidin-2-amine] | > 10 | > 10 | –
3 | Fc1cc(N2CCNCC2)ccc1Nc1ncc2c(n1)N1CCN=C1C(c1ccc(Cl)cc1)=C2 [Compound 28, 6-(4-chlorophenyl)-N-(2-fluoro-4-(piperazin-1-yl)phenyl)-8,9-dihydroimidazo[1′,2′:1,6]pyrido[2,3-d]pyrimidin-2-amine] | > 10 | 0.1 to 10 | –
4 | Fc1ccccc1Nc1ncc2c(n1)N1CCN=C1C(c1ccc(Cl)cc1Cl)=C2 [Compound 6, 6-(2,4-dichlorophenyl)-N-(2-fluorophenyl)-8,9-dihydroimidazo[1′,2′:1,6]pyrido[2,3-d]pyrimidin-2-amine] | > 10 | 0.1 to 10 | –
5 | CN(C)CCOc1ccc(Nc2ncc3c(n2)N2CCN=C2C(c2ccccc2Cl)=C3)cc1 [Compound 22, 6-(2-chlorophenyl)-N-(4-(2-(dimethylamino)ethoxy)phenyl)-8,9-dihydroimidazo[1′,2′:1,6]pyrido[2,3-d]pyrimidin-2-amine] | 0.1 to 10 | < 0.1 | –
6 | CNc1ncc2c(n1)N1CCCN=C1C(c1ccc(-n3cccc(C)c3=O)cc1Cl)=C2 [Compound 72, 1-(3-chloro-4-(2-(methylamino)-9,10-dihydro-8H-pyrido[1,6-a:2,3-d′]dipyrimidin-6-yl)phenyl)-3-methylpyridin-2(1H)-one] | 0.1 to 10 | > 10 | –
7 | COc1nc(N2CCNCC2)ccc1Nc1ncc2c(n1)N1CCN=C1C(c1ccc(Cl)cc1)=C2 [Compound 36, 6-(4-chlorophenyl)-N-(2-methoxy-6-(piperazin-1-yl)pyridin-3-yl)-8,9-dihydroimidazo[1′,2′:1,6]pyrido[2,3-d]pyrimidin-2-amine] | > 10 | 0.1 to 10 | –
8 | COc1cccc(Nc2ncc3c(n2)N2CCN=C2C(c2ccccc2Cl)=C3)c1 [Compound 17, 6-(2-chlorophenyl)-N-(3-methoxyphenyl)-8,9-dihydroimidazo[1′,2′:1,6]pyrido[2,3-d]pyrimidin-2-amine] | > 10 | < 0.1 | –
9 | Cc1ccc(Nc2ncc3c(n2)N2CCN=C2C(c2ccccc2Cl)=C3)cc1F [Compound 20, 6-(2-chlorophenyl)-N-(3-fluoro-4-methylphenyl)-8,9-dihydroimidazo[1′,2′:1,6]pyrido[2,3-d]pyrimidin-2-amine] | > 10 | < 0.1 | –
10 | Fc1ccc(Nc2ncc3c(n2)N2CCN=C2C(c2ccccc2Cl)=C3)cc1 [Compound 19, 6-(2-chlorophenyl)-N-(4-fluorophenyl)-8,9-dihydroimidazo[1′,2′:1,6]pyrido[2,3-d]pyrimidin-2-amine] | > 10 | < 0.1 | –
11 | COc1nc(N2CCNCC2)ccc1Nc1ncc2c(n1)N1CCN=C1C(c1ccccn1)=C2 [Compound 39, N-(2-methoxy-6-(piperazin-1-yl)pyridin-3-yl)-6-(pyridin-2-yl)-8,9-dihydroimidazo[1′,2′:1,6]pyrido[2,3-d]pyrimidin-2-amine] | > 10 | > 10 | –
12 | CNc1ncc2c(n1)N1CCCN=C1C(c1ccc(-n3ccnc(C)c3=O)cc1)=C2 [Compound 64, 3-methyl-1-(4-(2-(methylamino)-9,10-dihydro-8H-pyrido[1,6-a:2,3-d′]dipyrimidin-6-yl)phenyl)pyrazin-2(1H)-one] | > 10 | > 10 | –
13 | CSc1cccc(Nc2ncc3c(n2)N2CCN=C2C(c2ccccc2Cl)=C3)c1 [Compound 18, 6-(2-chlorophenyl)-N-(3-(methylthio)phenyl)-8,9-dihydroimidazo[1′,2′:1,6]pyrido[2,3-d]pyrimidin-2-amine] | > 10 | < 0.1 | –
14 | CCN1CCN(c2ccc(Nc3ncc4c(n3)N3CCN=C3C(c3ccc(Cl)cc3Cl)=C4)cc2F)CC1 [Compound 3, 6-(2,4-dichlorophenyl)-N-(4-(4-ethylpiperazin-1-yl)-3-fluorophenyl)-8,9-dihydroimidazo[1′,2′:1,6]pyrido[2,3-d]pyrimidin-2-amine] | 0.1 to 10 | < 0.1 | –
15 | Fc1cc(N2CCNCC2)ccc1Nc1ncc2c(n1)N1CCN=C1C(c1ccc(Cl)cc1Cl)=C2 [Compound 7, 6-(2,4-dichlorophenyl)-N-(2-fluoro-4-(piperazin-1-yl)phenyl)-8,9-dihydroimidazo[1′,2′:1,6]pyrido[2,3-d]pyrimidin-2-amine] | > 10 | – | IC50 (SRC): < 0.1 µM
16 | Fc1cc(Nc2ncc3c(n2)N2CCN=C2C(c2ccc(Cl)cc2)=C3)ccc1N1CCNCC1 [Compound 26, 6-(4-chlorophenyl)-N-(3-fluoro-4-(piperazin-1-yl)phenyl)-8,9-dihydroimidazo[1′,2′:1,6]pyrido[2,3-d]pyrimidin-2-amine] | 0.1 to 10 | < 0.1 | –
17 | Clc1cccc(Cl)c1C1=Cc2cnc(NCCC3CCNCC3)nc2N2CCN=C12 [Compound 49, 6-(2,6-dichlorophenyl)-N-(2-(piperidin-4-yl)ethyl)-8,9-dihydroimidazo[1′,2′:1,6]pyrido[2,3-d]pyrimidin-2-amine] | > 10 | 0.1 to 10 | –
18 | CNc1ncc2c(n1)N1CCCN=C1C(c1ccc(-n3ccnc(C)c3=O)cc1Cl)=C2 [Compound 73, 1-(3-chloro-4-(2-(methylamino)-9,10-dihydro-8H-pyrido[1,6-a:2,3-d′]dipyrimidin-6-yl)phenyl)-3-methylpyrazin-2(1H)-one] | > 10 | > 10 | –
19 | Fc1ccccc1Nc1ncc2c(n1)N1CCCN=C1C(c1cccc3[nH]ncc13)=C2 [Compound 58, N-(2-fluorophenyl)-6-(1H-indazol-4-yl)-9,10-dihydro-8H-pyrido[1,6-a:2,3-d′]dipyrimidin-2-amine] | > 10 | 0.1 to 10 | –
20 | CNc1ncc2c(n1)N1CCN=C1C(c1ccc(N3CCN(C)C3=O)cc1Cl)=C2 [Compound 23, 1-(3-chloro-4-(2-(methylamino)-8,9-dihydroimidazo[1′,2′:1,6]pyrido[2,3-d]pyrimidin-6-yl)phenyl)-3-methylimidazolidin-2-one] | 0.1 to 10 | > 10 | –
21 | Clc1ccccc1C1=Cc2cnc(NC3COC3)nc2N2CCN=C12 [Compound 21, 6-(2-chlorophenyl)-N-(oxetan-3-yl)-8,9-dihydroimidazo[1′,2′:1,6]pyrido[2,3-d]pyrimidin-2-amine] | > 10 | > 10 | –
22 | Cc1ccc(NC(=O)c2cccc(C(F)(F)F)c2)cc1C1=Cc2cnc(N)nc2N2CCCN=C12 [Compound 75, N-(3-(2-amino-9,10-dihydro-8H-pyrido[1,6-a:2,3-d′]dipyrimidin-6-yl)-4-methylphenyl)-3-(trifluoromethyl)benzamide] | > 10 | < 0.1 | –
23 | Fc1cc(N2CCNCC2)ccc1Nc1ncc2c(n1)N1CCN=C1C(c1ccccc1)=C2 [Compound 29, N-(2-fluoro-4-(piperazin-1-yl)phenyl)-6-phenyl-8,9-dihydroimidazo[1′,2′:1,6]pyrido[2,3-d]pyrimidin-2-amine] | > 10 | 0.1 to 10 | –
24 | Cn1nccc1Nc1ncc2c(n1)N1CCN=C1C(c1ccccc1Cl)=C2 [Compound 14, 6-(2-chlorophenyl)-N-(1-methyl-1H-pyrazol-5-yl)-8,9-dihydroimidazo[1′,2′:1,6]pyrido[2,3-d]pyrimidin-2-amine] | > 10 | > 10 | –
